According to ChEMBL document CHEMBL3611969, “The effect of complexation of 3-formylrifamycin SV macrocyclic ether derivatives with metal cations and small nitrogen-containing organic molecules on antibacterial activity against S. aureus and S. epidermidis” (Bioorg Med Chem Lett, 2015):
≈ marks a conversion by molar mass, not a printed value.

Experiments:
[1] = test system: Staphylococcus aureus; assay: Antibacterial activity against Staphylococcus aureus ATCC 6538 after 18 hrs by serial microdilution method; assay type: functional; conditions: ATCC 6538, 18 h
[2] = test system: Staphylococcus aureus; assay: Antibacterial activity against Staphylococcus aureus ATCC 6538 after 18 hrs by serial microdilution method in presence of isoniazid; assay type: functional; conditions: ATCC 6538, 18 h
[3] = test system: Staphylococcus aureus; assay: Antibacterial activity against Staphylococcus aureus ATCC 6538 after 18 hrs by serial microdilution method in presence of 2-chlorobenzylamine; assay type: functional; conditions: ATCC 6538, 18 h
[4] = test system: Staphylococcus aureus; assay: Antibacterial activity against Staphylococcus aureus ATCC 6538 after 18 hrs by serial microdilution method in presence of 4-fluorobenzylamine; assay type: functional; conditions: ATCC 6538, 18 h
[5] = test system: Staphylococcus aureus; assay: Antibacterial activity against Staphylococcus aureus ATCC 6538 after 18 hrs by serial microdilution method in presence of histamine; assay type: functional; conditions: ATCC 6538, 18 h
[6] = test system: Staphylococcus aureus; assay: Antibacterial activity against Staphylococcus aureus ATCC 4163 after 18 hrs by serial microdilution method; assay type: functional; conditions: ATCC 4163, 18 h
[7] = test system: Staphylococcus aureus; assay: Antibacterial activity against Staphylococcus aureus ATCC 4163 after 18 hrs by serial microdilution method in presence of 2-chlorobenzylamine; assay type: functional; conditions: ATCC 4163, 18 h
[8] = test system: Staphylococcus aureus; assay: Antibacterial activity against Staphylococcus aureus ATCC 4163 after 18 hrs by serial microdilution method in presence of 4-fluorobenzylamine; assay type: functional; conditions: ATCC 4163, 18 h
[9] = test system: Staphylococcus aureus; assay: Antibacterial activity against Staphylococcus aureus ATCC 4163 after 18 hrs by serial microdilution method in presence of isoniazid; assay type: functional; conditions: ATCC 4163, 18 h
[10] = test system: Staphylococcus aureus; assay: Antibacterial activity against Staphylococcus aureus ATCC 4163 after 18 hrs by serial microdilution method in presence of histamine; assay type: functional; conditions: ATCC 4163, 18 h
[11] = test system: Staphylococcus aureus; assay: Antibacterial activity against Staphylococcus aureus ATCC 25923 after 18 hrs by serial microdilution method; assay type: functional; conditions: ATCC 25923, 18 h
[12] = test system: Staphylococcus aureus; assay: Antibacterial activity against Staphylococcus aureus ATCC 25923 after 18 hrs by serial microdilution method in presence of 2-chlorobenzylamine; assay type: functional; conditions: ATCC 25923, 18 h
[13] = test system: Staphylococcus aureus; assay: Antibacterial activity against Staphylococcus aureus ATCC 25923 after 18 hrs by serial microdilution method in presence of 4-fluorobenzylamine; assay type: functional; conditions: ATCC 25923, 18 h
[14] = test system: Staphylococcus aureus; assay: Antibacterial activity against Staphylococcus aureus ATCC 25923 after 18 hrs by serial microdilution method in presence of isoniazid; assay type: functional; conditions: ATCC 25923, 18 h
[15] = test system: Staphylococcus aureus; assay: Antibacterial activity against Staphylococcus aureus ATCC 25923 after 18 hrs by serial microdilution method in presence of histamine; assay type: functional; conditions: ATCC 25923, 18 h
[16] = test system: Staphylococcus epidermidis; assay: Antibacterial activity against Staphylococcus epidermidis ATCC 12228 after 18 hrs by serial microdilution method; assay type: functional; conditions: ATCC 12228, 18 h
[17] = test system: Staphylococcus epidermidis; assay: Antibacterial activity against Staphylococcus epidermidis ATCC 12228 after 18 hrs by serial microdilution method in presence of 2-chlorobenzylamine; assay type: functional; conditions: ATCC 12228, 18 h
[18] = test system: Staphylococcus epidermidis; assay: Antibacterial activity against Staphylococcus epidermidis ATCC 12228 after 18 hrs by serial microdilution method in presence of 4-fluorobenzylamine; assay type: functional; conditions: ATCC 12228, 18 h
[19] = test system: Staphylococcus epidermidis; assay: Antibacterial activity against Staphylococcus epidermidis ATCC 12228 after 18 hrs by serial microdilution method in presence of isoniazid; assay type: functional; conditions: ATCC 12228, 18 h
[20] = test system: Staphylococcus epidermidis; assay: Antibacterial activity against Staphylococcus epidermidis ATCC 12228 after 18 hrs by serial microdilution method in presence of histamine; assay type: functional; conditions: ATCC 12228, 18 h
[21] = test system: Staphylococcus epidermidis; assay: Antibacterial activity against Staphylococcus epidermidis ATCC 49134 after 18 hrs by serial microdilution method; assay type: functional; conditions: ATCC 49134, 18 h
[22] = test system: Staphylococcus epidermidis; assay: Antibacterial activity against Staphylococcus epidermidis ATCC 49134 after 18 hrs by serial microdilution method in presence of 2-chlorobenzylamine; assay type: functional; conditions: ATCC 49134, 18 h
[23] = test system: Staphylococcus epidermidis; assay: Antibacterial activity against Staphylococcus epidermidis ATCC 49134 after 18 hrs by serial microdilution method in presence of 4-fluorobenzylamine; assay type: functional; conditions: ATCC 49134, 18 h
[24] = test system: Staphylococcus epidermidis; assay: Antibacterial activity against Staphylococcus epidermidis ATCC 49134 after 18 hrs by serial microdilution method in presence of isoniazid; assay type: functional; conditions: ATCC 49134, 18 h
[25] = test system: Staphylococcus epidermidis; assay: Antibacterial activity against Staphylococcus epidermidis ATCC 49134 after 18 hrs by serial microdilution method in presence of histamine; assay type: functional; conditions: ATCC 49134, 18 h
[26] = Solubility of the compound in water at pH 7; assay type: physicochemical
[27] = Octanol-water partition coefficient, log P of the compound by UV-vis method; assay type: physicochemical
[28] = Solubility of the compound in water at pH 7 in presence of histamine; assay type: physicochemical
[29] = Octanol-water partition coefficient, log P of the compound by UV-vis method in presence of histamine; assay type: physicochemical

MIC [1]: 2 µg/mL (≈ 1.93 µM)
MIC [2]: 1 µg/mL
MIC [3]: 0.25 µg/mL
MIC [4]: 0.25 µg/mL
MIC [5]: 0.125 µg/mL
MIC [6]: 2 µg/mL (≈ 1.93 µM)
MIC [7]: 0.25 µg/mL
MIC [8]: 0.25 µg/mL
MIC [9]: 1 µg/mL
MIC [10]: 0.125 µg/mL
MIC [11]: 2 µg/mL (≈ 1.93 µM)
MIC [12]: 0.25 µg/mL
MIC [13]: 0.25 µg/mL
MIC [14]: 1 µg/mL
MIC [15]: 0.125 µg/mL
MIC [16]: 0.5 µg/mL (≈ 0.482 µM)
MIC [17]: 0.25 µg/mL
MIC [18]: 0.25 µg/mL
MIC [19]: 0.5 µg/mL
MIC [20]: 1.25 µg/mL
MIC [21]: 0.5 µg/mL (≈ 0.482 µM)
MIC [22]: 0.25 µg/mL
MIC [23]: 0.25 µg/mL
MIC [24]: 0.5 µg/mL
MIC [25]: 0.125 µg/mL
solubility [26]: 110 µg/mL (≈ 106 µM)
logP [27]: 0.53
solubility [28]: 410 µg/mL
logP [29]: 0.69
Structure (SMILES): CO[C@H]1/C=C/O[C@@]2(C)Oc3c(C)c(O)c4c(O)c(c(CNc5ccc6c(c5)OCCOCCOCCOCCOCCO6)c(O)c4c3C2=O)NC(=O)/C(C)=C\C=C\[C@H](C)[C@H](O)[C@@H](C)[C@@H](O)[C@@H](C)[C@H](OC(C)=O)[C@@H]1C
